{
  "source": "patent EP0012271A1",
  "about": "“Prednisone derivatives, process for their production and pharmaceutical preparations containing these compounds” (SCHERING AKTIENGESELLSCHAFT, priority 1978, dated 1980)",
  "key": {"[1]": {"tested_on": "Vasokonstriktion", "assay": "Topical anti-inflammatory activity: vasoconstriction test on tape-stripped back skin of healthy volunteers, visual grading 1-5 compared with DFV", "type": "in vivo, gesunden Probanden", "settings": "Konz. der Salbe, mean of 8 volunteers, positive = better than DFV, negative = worse", "excerpt": "(§1) Die Prednison-Derivate der allgemeinen Formel I gemäß Anspruch 1 zeichnen sich gegenüber dem in handelsüblichen pharmazeutischen Präparate befindlichen, strukturanalogen Kortikoid 17α-Butyryloxy-21-chlor-9α-fluor-16β-methyl- l,4-pregnadien-3,11,20-trion durch eine günstigere Dissoziation zwischen erwünschter topischer antiinflammatorischer Wirksamkeit und unerwünschter systemischer Nebenwirkung aus, wie folgende pharmakologische Untersuchungen zeigen: • a) Ermittlung der topischen antiinflammatorischen Wirksamkeit: Die Untersuchungen werden an je 8 gesunden Probanden beider Geschlechter durchgeführt, die in den letzten zwei Wochen keine lokale Corticosteroidbehandlung erhalten hatten. Nach dem Entfernen des Stratum corneum bis zum Stratum lucidum auf dem Rücken der Probanden (20 - 40 Tesafilm-Abrisse) werden je o,l g der Zubereitung auf 4 cm^2 große Felder ohne Okklusionsverband aufgetragen. Um zu vermeiden, daß die gleiche Zubereitung jeweils auf identische Hautreale appliziert wird, wird in rotierender Folge aufgetragen. […]"}, "[2]": {"tested_on": "Pfotenödems", "assay": "Undesired systemic activity: Mycobacterium butyricum-induced paw oedema in rats, oral administration", "type": "in vivo, SPF-Ratten", "settings": "Rattus norvegicus, dose giving 50% reduction of paw oedema volume, measured 24 h after dosing, higher value = less undesired systemic effect, read-out: Systemische Wirksamkeit ED50", "excerpt": "as §1"}},
  "data": [
    {"smiles": "CCCC(=O)O[C@]1(C(=O)CCl)CC[C@H]2[C@@H]3CCC4=CC(=O)C=C[C@]4(C)[C@@]3(F)C(=O)C[C@@]21C", "note": "[Nr. 3, 17α-Butyryloxy-21-chlor-9α-fluor-1,4-pregnadien-3,11,20-trion]", "values": [
      {"measurement": "Topische Wirksamkeit, Wirkungsgrad DFV - Wirkungsgrad Substanz", "setting": "[1]; Beobachtungszeit 4 h", "result": "-0,1"},
      {"measurement": "Topische Wirksamkeit, Wirkungsgrad DFV - Wirkungsgrad Substanz", "setting": "[1]; Beobachtungszeit 8 h", "result": "0,0"},
      {"measurement": "ED50", "setting": "[2]", "result": 30, "unit": "mg/kg"}
    ]}
  ]
}
